Target: T1, Nurr1 protein (Homo sapiens, UniProt P43354)
T1 construct: three kinds of plasmid DNAs, including a DNA comprising Nurr1-LBD and a DNA having β-galactosidase, were transfected into BE(2)C cells; expressed in transfected cells; host or cells: BE(2)C human neuroblastoma cells
Assay: Nurr1 luciferase reporter assay in BE(2)C cells transfected with Nurr1-LBD
Type: cell-based
Procedure: A gene comprising eight repeats of a nucleotide sequence (5′-CTCGGAGGACAGTACTCCG-3, SEQ ID NO: 1) to which GLA4 gene can bind was linked to the reporter gene luciferase to synthesize a vector. Then, three kinds of plasmid DNAs, including a DNA comprising Nurr1-LBD and a DNA having β-galactosidase, were transfected into BE(2)C cells, and after 6 hours, the cells were treated with 1-200 ppm of the Daphne genkwa extract. The treated cells were incubated in a 5% CO2 incubator at 37° C. for 20 hours, and then subjected to a luciferase assay (FIG. 1).
FIG. 1 is a graphic diagram showing the results of a luciferase assay conducted to examine the change in Nurr1 protein activity as a function of the concentration of the Daphne genkwa extract. As a control, 0.1% DMSO was used, and the increase in activity was expressed as folds of the activity of the control. […]
The effects of the Daphne genkwa extract fractions, obtained using various solvents in Example 2, on Nurr1 protein activity, were analyzed according to a method similar to the method described in Example 3. […]
According to a method similar to the method described in Example 3, the concentration dependences of the effects of genkwanine N and yuanhuacine on the activity of Nurr1 protein were analyzed, and the results of the analysis are shown in FIG. 5.

T1 sequence (P43354 360-595 limits assumed): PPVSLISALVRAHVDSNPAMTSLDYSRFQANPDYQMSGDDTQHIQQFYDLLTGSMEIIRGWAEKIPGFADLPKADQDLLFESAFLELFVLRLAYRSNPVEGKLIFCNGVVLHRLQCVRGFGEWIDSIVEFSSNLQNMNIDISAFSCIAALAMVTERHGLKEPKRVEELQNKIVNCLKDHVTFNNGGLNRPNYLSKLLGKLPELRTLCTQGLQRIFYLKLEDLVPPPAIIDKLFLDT

Row | Compound | increase of activity of Nurr1 protein (16 nM (corresponding to 0.01 ppm)) [%] | increase of activity of Nurr1 protein (15 nM (corresponding to 0.01 ppm)) [%]
1 | C=C(C)[C@]12C[C@@H](C)[C@@]34OC(c5ccccc5)(O[C@@H]1[C@@H]3[C@@H]1O[C@]1(CO)[C@@H](O)[C@@]1(O)[C@H]4C[C@H](C)[C@@H]1OC(=O)c1ccccc1)O2 [genkwanine N] | 60 | –
2 | C=C(C)[C@@]12OC3(/C=C/C=C/CCCCC)O[C@@H]1[C@@H]1[C@@H]4O[C@]4(CO)[C@@H](O)[C@]4(O)C(=O)C(C)=C[C@H]4[C@@]1(O3)[C@H](C)[C@H]2OC(=O)c1ccccc1 [yuanhuacine] | – | 70

Source: patent US9034916B2, “Pharmaceutical composition for the prevention or treatment of a neurodegenerative disease, comprising a Daphne genkwa extract or a compound isolated therefrom” (Korea Research Institute of Bioscience and Biotechnology, priority 2011, dated 2015)
